From US8101773B2, “Hydroxy methyl phenyl pyrazolyl urea compounds useful in the treatment of cancer” (Bayer Healthcare LLC, priority 2006, dated 2012)
Residue numbers refer to the chain shown, from its start. Structures can show the parent of a compound that is named as a salt.

Legend:
[1] = In vitro tumor cell proliferation assay (Cell Titre-Glo), cell lines of interest; type: cell-based; conditions: 72 hours, Cell Titer Glo; read-out: antiproliferative properties (IC50) in one or more cell lines of interest
From the text: In vitro Tumor Cell Proliferation Assay

[2] = molecular target: T1, Flk-1 (murine VEGFR-2) kinase domain (Mus musculus, UniProt P35918); assay: Flk-1 (murine VEGFR-2) biochemical assay, TR-FRET; conditions: 10 μM ATP
T1 construct: 7 nM Flk-1 (kinase domain)
T1 sequence (P35918 832-1160 limits assumed): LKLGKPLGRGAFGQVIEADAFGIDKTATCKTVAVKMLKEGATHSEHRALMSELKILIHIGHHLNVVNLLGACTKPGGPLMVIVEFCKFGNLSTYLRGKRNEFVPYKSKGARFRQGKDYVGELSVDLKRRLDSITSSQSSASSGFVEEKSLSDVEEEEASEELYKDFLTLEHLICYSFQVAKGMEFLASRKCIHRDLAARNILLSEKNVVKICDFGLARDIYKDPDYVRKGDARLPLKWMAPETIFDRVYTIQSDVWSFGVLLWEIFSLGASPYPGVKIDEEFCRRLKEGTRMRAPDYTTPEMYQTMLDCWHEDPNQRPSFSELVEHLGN
Protocol: Flk-1 (Murine VEGFR-2) Biochemical Assay
This assay was performed in 96-well opaque plates (Costar 3915) in the TR-FRET format. Reaction conditions were as follows: 10 μM ATP, 25 nM poly GT-biotin, 2 nM Eu-labelled phospho-Tyr Ab (PY20 Perkin Elmer), 10 nM APC (Perkin Elmer), 7 nM Flk-1 (kinase domain), 1% DMSO, 50 mM HEPES pH 7.5, 10 mM MgCl2, 0.1 mM EDTA, 0.015% BRIJ, 0.1 mg/mL BSA, 0.1% mercapto-ethanol). Reaction was initiated upon addition of enzyme. Final reaction volume in each well was 100 μL. Plates were read at both 615 and […] on a Perkin Elmer Victor V Multilabel counter at about 1.5-2.0 hours after reaction initiation. Signal was calculated as a ratio: (665 nm/615 nm)*10000 for each well.

[3] = molecular target: T2, Bcr-Abl-wt kinase (Homo sapiens, UniProt P00519); assay: Bcr-Abl wild type biochemical assay (MBP phosphorylation, 33P-ATP); conditions: 50 μM ATP
T2 sequence (P00519 242-493 limits assumed): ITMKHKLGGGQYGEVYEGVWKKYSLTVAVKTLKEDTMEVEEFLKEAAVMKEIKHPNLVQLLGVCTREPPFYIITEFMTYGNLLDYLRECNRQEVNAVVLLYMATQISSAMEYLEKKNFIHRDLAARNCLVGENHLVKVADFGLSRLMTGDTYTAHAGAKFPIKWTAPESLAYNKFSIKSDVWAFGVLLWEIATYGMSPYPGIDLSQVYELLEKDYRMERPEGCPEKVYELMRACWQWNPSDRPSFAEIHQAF
Protocol: (§1) Bcr-Abl Wild Type and Mutant T315I Biochemical Assay
(§2) Bcr-Abl-wt or mutant Bcr-Abl-T3151 kinase (0.17 nM) was incubated with Myelin Basic Protein (MBP, 2 μM) in assay buffer consisting of 50 mM Tris pH 7.5, 10 mM MgCl2, 1 mM EGTA, 2 mM DTT, 50 μM ATP and 0.4 μCi of ^33P-ATP. Test compounds were added at varying concentrations (final DMSO conc=1%) prior to the addition of ATP. The reaction mixture was incubated for 1 hour at 32° C. The reaction was then stopped by addition of phosphoric acid (final conc=1%) and samples were transferred to filtermats and read in a betaplate reader. Inhibition of MBP phosphorylation by Bcr-Abl-wt or Bcr-Abl-T3151 was analyzed by using a 4 parameter fit and in-house software.

[4] = molecular target: T3, human recombinant c-Met intracellular kinase domain (Homo sapiens, UniProt P08581); assay: c-Met biochemical assay, ELISA format; conditions: 0.2 μM ATP
T3 construct: C-terminal HIS-tagged intracellular kinase domain (956 to 1390 amino acids) human recombinant c-Met; His tag (C)
T3 sequence (P08581 956-1390): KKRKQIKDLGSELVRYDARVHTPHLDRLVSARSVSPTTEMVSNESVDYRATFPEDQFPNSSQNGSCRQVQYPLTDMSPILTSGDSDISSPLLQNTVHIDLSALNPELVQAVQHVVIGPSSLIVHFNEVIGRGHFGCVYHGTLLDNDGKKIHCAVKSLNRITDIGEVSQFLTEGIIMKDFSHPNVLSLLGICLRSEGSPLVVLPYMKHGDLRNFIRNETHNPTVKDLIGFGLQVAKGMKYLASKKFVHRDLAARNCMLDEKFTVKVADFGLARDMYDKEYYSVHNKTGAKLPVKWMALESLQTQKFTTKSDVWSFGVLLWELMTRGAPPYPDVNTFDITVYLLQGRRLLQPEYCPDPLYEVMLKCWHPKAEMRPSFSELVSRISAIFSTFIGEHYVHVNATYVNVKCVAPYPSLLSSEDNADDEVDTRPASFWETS
Protocol: An ELISA format was used for the c-Met biochemical assay. This assay uses the C-terminal HIS-tagged intracellular kinase domain (956 to 1390 amino acids) human recombinant c-Met in 96-well plates. 96-Well plates (Costar #9018) coated with poly(GluTyr) (Sigma # P0275) were used in this assay. The poly(GluTyr) substrate coated on the plate was phosphorylated in a 100 μL reaction volume with 2 nM c-Met protein in an assay buffer (50 mM HEPES pH7.0, 5 mM MnCl2, 0.1% BSA, 0.5 mM sodium orthovanadate, 0.1% β-mercaptoethanol), with 0.2 μM ATP (Sigma #A7699). […] After 25 minutes of incubation, the assay reaction was stopped with 25 μL of 100 mM EDTA. The plates were then washed, and wells were treated with 100 μL of 80 ng/mL anti-4G10-HRP antibody (Upstate #16-105) for 1 h. Plates were washed one final time, and were developed with 100 μL 3,3′,5,5′-TMB (Sigma #T8665), and quenched with 100 μL 1M HCl. Plates were read on a Victor 2 plate reader (Perkin Elmer) and IC50 analysis and calculation were performed using in-house software.

[5] = molecular target: T4, mutant Bcr-Abl-T3151 kinase (Homo sapiens, UniProt P00519, T315I); assay: Bcr-Abl mutant T315I biochemical assay (MBP phosphorylation, 33P-ATP); conditions: 50 μM ATP
T4 sequence (P00519 242-493 T315I limits assumed): T2 sequence (P00519 242-493 limits assumed) with T74I
Protocol: as §1, §2

| SMILES | IC50 [1] [nM] | IC50 [2] [nM] | IC50 [3] [nM] | IC50 [4] [nM] | IC50 [5] [nM] |
| --- | --- | --- | --- | --- | --- |
| CNC(=O)c1cc(Oc2ccc(NC(=O)Nc3cc(C(C)(C)C)nn3-c3cccc(COP(=O)(O)O)c3)c(F)c2)ccn1 [Example 13, 3-(3-tert-Butyl-5-{[(2-fluoro-4-{[2-(methylcarbamoyl)pyridin-4-yl]oxy}-phenyl)carbamoyl]amino}-1H-pyrazol-1-yl)benzyl dihydrogen phosphate dihydrochloride] | < 5000 |  |  |  |  |
| CNC(=O)c1cc(Oc2ccc(NC(=O)Nc3cc(C(C)(C)C)nn3-c3cccc(COC(=O)[C@H](N)C(C)C)c3)c(F)c2)ccn1 [Example 9, 3-(3-tert-Butyl-5-{[(2-fluoro-4-{[2-(methylcarbamoyl)pyridin-4-yl]oxy}phenyl)-carbamoyl]amino}-1H-pyrazol-1-yl)benzyl D-valinate] | < 5000 | < 1000 | < 1000 | < 1000 | < 1000 |
| CNC(=O)c1cc(Oc2ccc(NC(=O)Nc3cc(C(C)(C)C)nn3-c3cccc(COC(=O)[C@@H](N)C(C)C)c3)c(F)c2)ccn1 [Example 10, 3-(3-tert-Butyl-5-{[(2-fluoro-4-{[2-(methylcarbamoyl)pyridin-4-yl]oxy}-phenyl)carbamoyl]amino}-1H-pyrazol-1-yl)benzyl L-valinate] |  | < 1000 | < 1000 | < 1000 | < 1000 |
| CNC(=O)c1cc(Oc2ccc(NC(=O)Nc3cc(C(C)(C)C)nn3-c3cccc(COC(=O)CC(C)C)c3)c(F)c2)ccn1 [Example 17, 3-(3-tert-Butyl-5-{[(2-fluoro-4-{[2-(methylcarbamoyl)pyridin-4-yl]oxy}phenyl)carbamoyl]amino}-1H-pyrazol-1-yl)benzyl 3-methylbutanoate] |  |  |  | < 20000 | < 20000 |
| CNC(=O)c1cc(Oc2ccc(NC(=O)Nc3cc(C(C)(C)C)nn3-c3cccc(COC(C)=O)c3)c(F)c2)ccn1 [Example 11, 3-(3-tert-Butyl-5-{[(2-fluoro-4-{[2-(methylcarbamoyl)pyridin-4-yl]oxy}-phenyl)carbamoyl]amino}-1H-pyrazol-1-yl)benzyl acetate] | < 5000 | < 1000 | < 1000 | < 1000 | < 1000 |
| CCC(=O)OCc1cccc(-n2nc(C(C)(C)C)cc2NC(=O)Nc2ccc(Oc3ccnc(C(=O)NC)c3)cc2F)c1 [Example 16, 3-(3-tert-butyl-5-{[(2-fluoro-4-{[2-(methylcarbamoyl)pyridin-4-yl]oxy}phenyl)carbamoyl]amino}-1H-pyrazol-1-yl)benzyl propionate] |  | < 1000 | < 1000 | < 1000 | < 1000 |

Further lines, results first:

| IC50 [1] [nM] | IC50 [2] [nM] | IC50 [3] [nM] | IC50 [4] [nM] | IC50 [5] [nM] | SMILES |
| --- | --- | --- | --- | --- | --- |
|  |  |  | < 20000 | < 20000 | CNC(=O)c1cc(Oc2ccc(NC(=O)Nc3cc(C(C)(C)C)nn3-c3cccc(COC(=O)[C@H](NC(=O)OCC4c5ccccc5-c5ccccc54)C(C)C)c3)c(F)c2)ccn1 [Example 8, 3-(3-tert-Butyl-5-{[(2-fluoro-4-{[2-(methylcarbamoyl)pyridin-4-yl]oxy}phenyl)carbamoyl]amino}-1H-pyrazol-1-yl)benzyl-N-[(9H-fluoren-9-ylmethoxy)carbonyl]D valinate] |
|  | < 1000 | < 1000 | < 1000 | < 1000 | CNC(=O)c1cc(Oc2ccc(NC(=O)Nc3cc(C(C)(C)C)nn3-c3cccc(COC(=O)COC)c3)c(F)c2)ccn1 [Example 15, 3-(3-tert-Butyl-5-{[(2-fluoro-4-{[2-(methylcarbamoyl)pyridin-4-yl]oxy}phenyl)carbamoyl]amino}-1H-pyrazol-1-yl)benzyl methoxyacetate] |
| < 5000 |  |  | < 20000 | < 20000 | CNC(=O)c1cc(Oc2ccc(NC(=O)Nc3cc(C(C)(C)C)nn3-c3cccc(COP(=O)(OC(C)(C)C)OC(C)(C)C)c3)c(F)c2)ccn1 [Example 12, Di-tert-butyl 3-(3-tert-butyl-5-{[(2-fluoro-4-{[2-(methylcarbamoyl)pyridin-4-yl]oxy}phenyl)carbamoyl]amino}-1H-pyrazol-1-yl)benzyl phosphate] |
